Columns and labels:
[1] = system: Candida albicans SLU-1 strain; experiment: Serum stability, anti-fungal activity after serum incubation by radial diffusion bioassay; format: in vitro ADME, rat or human serum
Procedure, shortened: (§1)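 Peptide at 1 mg/mL mixed with an equal volume of rat or human serum and held at 37° C. Samples taken at 0, 1, 2 and 4 h, extracted on C-18 solid phase, then analysed by HPLC, N-terminal sequencing and ESI/MS. Recovered peptides tested against C. albicans SLU-1 by radial diffusion.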

[2] = system: Crytococcus Neoformans 13690; format: cell-based, Cryptococcus neoformans
Procedure: (§2) In additional experiments, a fluorescence-activated cell sorter (FACS) based assay was developed to test the fungicidal activity of the peptides. […] Difco) agar. Several colonies were picked from the agar plate and inoculated into 5 mL of Sabouraud's Dextrose media in a sterile 10 mL polypropylene tube. The fungal cultures were incubated for about 18 hours at 30° C. […] The culture were centrifuged at 3000 rpm for 5 minutes (Sorvall RT 6000B). After centrifugation, the supernatant was decanted leaving the fungal pellets in the centrifuge tubes. The pellets were resuspended in 15 mL of SDB. Both suspensions were combined into one tube and mixed to generate a stock culture. […] After determining the concentration of the stock, appropriate dilutions were made with Sabouraud's Dextrose media to obtain 100 mL of 1×10^6 cell/mL. […] After the 1 hour incubation, all the tubes were centrifuged at 3000 rpm for 5 minutes. […] Louis, Mo.) in Dulbecco's PBS (DPBS, GIBCO, Grand Island, N.Y.) except the autofluorescence control, which was resuspended in DPBS alone. […] The settings were adjusted appropriately to the following approximate parameters: Cells were analyzed (10,000 cells/tube) and their respective fluorescence determined. […] The population of dead (i.e., propidium iodide stained) fungal cells was determined by a fluorescence threshold between the negative control and positive control.

[3] = Serum stability, anti-fungal activity after serum incubation by radial diffusion bioassay; format: in vitro ADME, rat or human serum; conditions: Activity in Serum t ½ (hr.)
Procedure, shortened: as §1

Candida parasilosis = format: cell-based
Procedure: as §2, with “alone. The tubes were mixed and incubated in the dark at room temperature for at least 20 minutes.” for “alone.”

Candida glabrata = format: cell-based
Procedure: as §2, with “alone. The tubes were mixed and incubated in the dark at room temperature for at least 20 minutes.” for “alone.”

Candida lusitaniae = format: cell-based
Procedure: as §2, with “alone. The tubes were mixed and incubated in the dark at room temperature for at least 20 minutes.” for “alone.”

Row | Substance | Activity in Serum t ½ (hr.) [1] | Activity of Peptides on Crytococcus Neoformans 13690, IC50 [2] [µg/mL] | half-life at 0.5 mg/mL [3] [h] | Candida parasilosis IC50 (Candida parasilosis) [µg/mL] | Candida glabrata IC50 (Candida glabrata) [µg/mL] | Candida lusitaniae IC50 (Candida lusitaniae) [µg/mL]
1 | H-KSKVGWLIQLFHKK-NH2 [XMP.13] | indefinite | – | – | – | – | –
2 | H-SKVKWLIQLFHKK-NH2 [XMP.284] | – | 0.11 | 14.6 | 1.82 | 6.27 | 1.20
